These results are taken from US20230210999A1, “TARGETED PROTEASE DEGRADATION (TED) PLATFORM” (EUBULUS BIOTHERAPEUTICS INC., priority 2020, published 2023).

The subject of one assay is MV4;11 cells. The experiment in a line: Cell proliferation experiment (Alamar blue, 72 h), MV4;11. The assay is classed as cell-based, human. The settings on record: Homo sapiens, MV4-11, MV4;11 cells; read-out: Inhibitory activity IC50 on MV4;11. The gist of the method: (§1)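 Single-cell suspensions from log-phase cultures, passaged at least 2 generations, are seeded into 96-well plates and given compound in complete medium. Following 72 h, fluorescence with Alamar blue is recorded and fitted for IC50.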
In general terms: Resazurin is reduced to fluorescent resorufin, in cell work by metabolically active cells.
A word on the IC50: it is the concentration needed to halve the response being measured. Regarding `CNC(=O)c1ccccc1Nc1nc(Nc2ccc(N3CCN(C(=O)NCCNCCC(=O)Nc4cccc5c4CN(C4CCC(=O)NC4=O)C5=O)CC3)cc2)ncc1Cl` (stereo not shown) [UB-181053], the IC50 lay within 10 to 100 nM.

In the case of `CNC(=O)c1ccccc1Nc1nc(Nc2ccc(N3CCN(C(=O)NCCNCCCC(=O)Nc4cccc5c4CN(C4CCC(=O)NC4=O)C5=O)CC3)cc2)ncc1Cl` (stereo not shown) [UB-181055], the IC50 fell in the range of 10 to 100 nM.

As for `CNC(=O)c1ccccc1Nc1nc(Nc2ccc(N3CCN(C(=O)NCCNCCCC(=O)Nc4ccc5c(c4)CN(C4CCC(=O)NC4=O)C5=O)CC3)cc2)ncc1Cl` (stereo not shown) [UB-181056], the IC50 was in the range of 10 to 100 nM.

Take `CNC(=O)c1ccccc1Nc1nc(Nc2ccc(N3CCN(C(=O)NCCNCCOCC(=O)Nc4cccc5c4CN(C4CCC(=O)NC4=O)C5=O)CC3)cc2)ncc1Cl` (stereo not shown) [UB-181057]: the IC50 is under 10 nM.

Turning to `CNC(=O)c1ccccc1Nc1nc(Nc2ccc(N3CCN(C(=O)NCCNCCOCC(=O)Nc4ccc5c(c4)CN(C4CCC(=O)NC4=O)C5=O)CC3)cc2)ncc1Cl` (stereo not shown) [UB-181058], the IC50 was in the range of 10 to 100 nM.

Take `CNC(=O)c1ccccc1Nc1nc(Nc2ccc(N3CCN(C(=O)NCCOCCOCCOCCC(=O)Nc4ccc5c(c4)CN(C4CCC(=O)NC4=O)C5=O)CC3)cc2)ncc1Cl` (stereo not shown) [UB-181060]: the IC50 was 10 to 100 nM.

`CNC(=O)c1ccccc1Nc1nc(Nc2ccc(N3CCN(C(=O)NCCCNCCOCC(=O)Nc4cccc5c4CN(C4CCC(=O)NC4=O)C5=O)CC3)cc2)ncc1Cl` (stereo not shown) [UB-181061]: the IC50 is under 10 nM.

In a further assay the test system is PC-3. The experiment in a line: Cell proliferation experiment, PC-3. The assay is classed as cell-based, human. As to conditions: Homo sapiens, PC-3, PC-3 cells; read-out: Inhibitory activity IC50 on PC-3. As for the experimental part:
(§2) Reagents: RPMI-1640 medium, McCoy's 5A medium, IMDM medium, MEM medium, L-15 medium, fetal bovine serum. Penicillin-Streptomycin double antibody, trypsin, etc., 2-mercaptoethanol, NEAA, pyruvate, etc.
(§3) The cells were cultured in conventional ways, and the cells should be passed at least 2 generations before plating. Cells at the logarithmic growth phase were collected, prepared into single cell suspensions and counted. The concentration of cells was adjusted to the desired concentration, and cells were inoculated into a 96-well cell culture plate at 100 μl per well. 100 μL of complete medium of the test compound were added to each well, set up 2 duplicate wells for each concentration, and diluted with a 5-fold gradient, and continued to culture for 72 h. All cells were subjected to IC50 test for corresponding samples. The experimental results are shown in Test Example 4.
(§4) The fluorescence intensity of each well was detected using the Alarm blue method, and IC50 was calculated.
(§5) IC50 was calculated according to the following formula:
(§6) Y=Max+(Min−Max)/[1+(X/IC50)×Slope]
(§7) wherein Min, Max and Slope represent the minimum, maximum and slope respectively.
As to `CNC(=O)c1ccccc1Nc1nc(Nc2ccc(N3CCN(C(=O)NCCNCCC(=O)Nc4cccc5c4CN(C4CCC(=O)NC4=O)C5=O)CC3)cc2)ncc1Cl` (stereo not shown) [UB-181053], the 50% inhibitory concentration (IC50) was over 1000 nM.

As to `CNC(=O)c1ccccc1Nc1nc(Nc2ccc(N3CCN(C(=O)NCCNCCCC(=O)Nc4cccc5c4CN(C4CCC(=O)NC4=O)C5=O)CC3)cc2)ncc1Cl` (stereo not shown) [UB-181055], the IC50 is over 1000 nM.

Consider `CNC(=O)c1ccccc1Nc1nc(Nc2ccc(N3CCN(C(=O)NCCNCCCC(=O)Nc4ccc5c(c4)CN(C4CCC(=O)NC4=O)C5=O)CC3)cc2)ncc1Cl` (stereo not shown) [UB-181056], for which the IC50 was over 1000 nM.

Take `CNC(=O)c1ccccc1Nc1nc(Nc2ccc(N3CCN(C(=O)NCCNCCOCC(=O)Nc4cccc5c4CN(C4CCC(=O)NC4=O)C5=O)CC3)cc2)ncc1Cl` (stereo not shown) [UB-181057]: the IC50 was over 1000 nM.

In the case of `CNC(=O)c1ccccc1Nc1nc(Nc2ccc(N3CCN(C(=O)NCCNCCOCC(=O)Nc4ccc5c(c4)CN(C4CCC(=O)NC4=O)C5=O)CC3)cc2)ncc1Cl` (stereo not shown) [UB-181058], the IC50 was over 1000 nM.

On to `CNC(=O)c1ccccc1Nc1nc(Nc2ccc(N3CCN(C(=O)NCCOCCOCCOCCC(=O)Nc4ccc5c(c4)CN(C4CCC(=O)NC4=O)C5=O)CC3)cc2)ncc1Cl` (stereo not shown) [UB-181060], for which the IC50 was over 1000 nM.

`CNC(=O)c1ccccc1Nc1nc(Nc2ccc(N3CCN(C(=O)NCCCNCCOCC(=O)Nc4cccc5c4CN(C4CCC(=O)NC4=O)C5=O)CC3)cc2)ncc1Cl` (stereo not shown) [UB-181061]: the IC50 is over 1000 nM.

The subject of the next assay is NCIH82 cells. The experiment in a line: Cell proliferation experiment, NCI-H82. The assay is classed as cell-based, human. The settings on record: Homo sapiens, NCI-H82, NCI-H82 cells; read-out: Inhibitory activity IC50 on NCI-H82. The gist of the method:
as §1
`CNC(=O)c1ccccc1Nc1nc(Nc2ccc(N3CCN(C(=O)NCCNCCC(=O)Nc4cccc5c4CN(C4CCC(=O)NC4=O)C5=O)CC3)cc2)ncc1Cl` (stereo not shown) [UB-181053]: the IC50 is 100 to 1000 nM.

Take `CNC(=O)c1ccccc1Nc1nc(Nc2ccc(N3CCN(C(=O)NCCNCCCC(=O)Nc4cccc5c4CN(C4CCC(=O)NC4=O)C5=O)CC3)cc2)ncc1Cl` (stereo not shown) [UB-181055]: the IC50 was in the range of 100 to 1000 nM.

For the compound `CNC(=O)c1ccccc1Nc1nc(Nc2ccc(N3CCN(C(=O)NCCNCCCC(=O)Nc4ccc5c(c4)CN(C4CCC(=O)NC4=O)C5=O)CC3)cc2)ncc1Cl` (stereo not shown) [UB-181056], the IC50 is 100 to 1000 nM.

Take `CNC(=O)c1ccccc1Nc1nc(Nc2ccc(N3CCN(C(=O)NCCNCCOCC(=O)Nc4cccc5c4CN(C4CCC(=O)NC4=O)C5=O)CC3)cc2)ncc1Cl` (stereo not shown) [UB-181057]: the IC50 was 100 to 1000 nM.

For the compound `CNC(=O)c1ccccc1Nc1nc(Nc2ccc(N3CCN(C(=O)NCCNCCOCC(=O)Nc4ccc5c(c4)CN(C4CCC(=O)NC4=O)C5=O)CC3)cc2)ncc1Cl` (stereo not shown) [UB-181058], the IC50 was 100 to 1000 nM.

On to `CNC(=O)c1ccccc1Nc1nc(Nc2ccc(N3CCN(C(=O)NCCOCCOCCOCCC(=O)Nc4ccc5c(c4)CN(C4CCC(=O)NC4=O)C5=O)CC3)cc2)ncc1Cl` (stereo not shown) [UB-181060], for which the IC50 is 10 to 100 nM.

As to `CNC(=O)c1ccccc1Nc1nc(Nc2ccc(N3CCN(C(=O)NCCCNCCOCC(=O)Nc4cccc5c4CN(C4CCC(=O)NC4=O)C5=O)CC3)cc2)ncc1Cl` (stereo not shown) [UB-181061], the IC50 is 100 to 1000 nM.

A further assay has as its system MDA-MB-231 cells. The experiment in a line: Cell proliferation experiment, MDA-MB-231. The assay is classed as cell-based, human. As to conditions: Homo sapiens, MDA-MB-231, MDA-MB-231 cells; read-out: Inhibitory activity IC50 on MDA-MB-231. How it is done: as §2, §3, §4, §5, §6, §7
As to `CNC(=O)c1ccccc1Nc1nc(Nc2ccc(N3CCN(C(=O)NCCNCCC(=O)Nc4cccc5c4CN(C4CCC(=O)NC4=O)C5=O)CC3)cc2)ncc1Cl` (stereo not shown) [UB-181053], the IC50 is over 1000 nM.

As to `CNC(=O)c1ccccc1Nc1nc(Nc2ccc(N3CCN(C(=O)NCCNCCCC(=O)Nc4cccc5c4CN(C4CCC(=O)NC4=O)C5=O)CC3)cc2)ncc1Cl` (stereo not shown) [UB-181055], the IC50 is over 1000 nM.

Consider `CNC(=O)c1ccccc1Nc1nc(Nc2ccc(N3CCN(C(=O)NCCNCCCC(=O)Nc4ccc5c(c4)CN(C4CCC(=O)NC4=O)C5=O)CC3)cc2)ncc1Cl` (stereo not shown) [UB-181056], for which the IC50 was over 1000 nM.

With `CNC(=O)c1ccccc1Nc1nc(Nc2ccc(N3CCN(C(=O)NCCNCCOCC(=O)Nc4cccc5c4CN(C4CCC(=O)NC4=O)C5=O)CC3)cc2)ncc1Cl` (stereo not shown) [UB-181057], the IC50 is over 1000 nM.

With `CNC(=O)c1ccccc1Nc1nc(Nc2ccc(N3CCN(C(=O)NCCNCCOCC(=O)Nc4ccc5c(c4)CN(C4CCC(=O)NC4=O)C5=O)CC3)cc2)ncc1Cl` (stereo not shown) [UB-181058], the IC50 was over 1000 nM.

Take `CNC(=O)c1ccccc1Nc1nc(Nc2ccc(N3CCN(C(=O)NCCOCCOCCOCCC(=O)Nc4ccc5c(c4)CN(C4CCC(=O)NC4=O)C5=O)CC3)cc2)ncc1Cl` (stereo not shown) [UB-181060]: the IC50 is over 1000 nM.

For the compound `CNC(=O)c1ccccc1Nc1nc(Nc2ccc(N3CCN(C(=O)NCCCNCCOCC(=O)Nc4cccc5c4CN(C4CCC(=O)NC4=O)C5=O)CC3)cc2)ncc1Cl` (stereo not shown) [UB-181061], the IC50 is 100 to 1000 nM.
